Data set [1] has as its target GLP1R (Homo sapiens, UniProt P43220). The data set can be described thus: hGLP1R potency, cAMP accumulation in CHO-K1 cells stably overexpressing hGLP1R. The class given is cell-based. More on the design: host or cells: CHO-K1. The settings on record: for EC50: cAMP accumulation, CHO-K1 cells overexpressing hGLP1R, read-out: hGLP1R pEC50 (converted); for SCTR EC50/GLP1R EC50 ratio: selectivity for hGLP1R over hSCTR, cAMP accumulation in CHO-K1 cells. In a few lines: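 Potency reflects cAMP accumulation measured by time-resolved fluorescence energy transfer after a 30 min room-temperature stimulation in IBMX-containing (0.5 mM) DPBS with casein. Purified peptides were tested in duplicate over eleven threefold dilutions, and EC50 was obtained from sigmoid concentration-response fitting.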
On the technique in general: Cyclic AMP is a second messenger, typically raised through Gs and lowered through Gi signalling.

Data set [2] can be described thus: Turbidity of crude library peptides (absorbance at 600 nm). The settings on record: Physical stability of peptides. The data set is classed as physicochemical. In a few lines: (§1)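 Values reflect mean ThT emission (ex 450, em 480 nm) over 72 h at 40° C, read every 10 min after 5 min shaking at 700 rpm, plus a single initial absorbance at 600 nm for turbidity. Peptides were at 267 μM, pH 4.0 acetate or pH 7.0 phosphate (50 mM), with 4 μM ThT.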

The nature of data set [3]: Fibril formation of crude library peptides (Thioflavin T). The data set is classed as physicochemical. More on the design: key: average ThT fluorescence emission at 480 nm (ex 450 nm), raw units. The settings on record: Physical stability of peptides. The procedure, abridged: as §1
Data set [4] concerns the target SCTR (Homo sapiens, UniProt P47872). As to the kind of experiment: hSCTR potency, cAMP accumulation in CHO-K1 cells stably overexpressing hSCTR. The class given is cell-based. More on the design: alternatively Euroscreen ES-712-AF; FAST-0161L; host or cells: CHO-K1. Conditions: cAMP accumulation, CHO-K1 cells overexpressing hSCTR; read-out: hSCTR pEC50 (converted). In a few lines: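 Potency reflects cAMP accumulation after 30 min agonist exposure at room temperature in hSCTR-expressing CHO-K1 cells, with 0.5 mM IBMX present to block phosphodiesterase. EC50 was derived by nonlinear regression.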

Results on five compounds are retold here after patent publication US20260201008A1, “SECRETIN-DERIVED GLP1R SELECTIVE AGONISTS” (GUBRA A/S, priority 2023, published 2026).

Structures are written as SMILES. Numbered stars: 1 amine (or outer) side, 2 acyl side, 3 side chain; on linkers, the order of the positions; unused ones are H or OH. Square brackets hold non-standard residues; d marks the D form. Side chains are listed from the residue outwards. Peptide text beside a SMILES is read from it. * marks the point of attachment. C20 diacid = O=C(O)CCCCCCCCCCCCCCCCCCC(=O)*; γGlu = O=C(O)[C@H](CCC(=O)[*:2])N[*:1]; AEEA = NCCOCCOCC(=O)O; Aib = CC(C)(N)C(=O)O

Chain of SCTR (P47872 23-440): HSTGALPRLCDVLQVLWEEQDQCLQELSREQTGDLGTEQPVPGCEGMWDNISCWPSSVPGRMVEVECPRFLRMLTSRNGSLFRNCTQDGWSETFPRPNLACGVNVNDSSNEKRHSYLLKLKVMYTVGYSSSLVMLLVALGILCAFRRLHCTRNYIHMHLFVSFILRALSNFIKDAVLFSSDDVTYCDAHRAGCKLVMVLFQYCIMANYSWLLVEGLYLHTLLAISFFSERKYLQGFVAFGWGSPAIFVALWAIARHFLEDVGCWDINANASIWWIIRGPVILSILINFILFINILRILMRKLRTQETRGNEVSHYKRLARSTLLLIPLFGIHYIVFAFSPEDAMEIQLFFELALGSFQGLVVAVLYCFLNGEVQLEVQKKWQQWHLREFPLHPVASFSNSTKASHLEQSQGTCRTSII
Chain of GLP1R (P43220 24-463): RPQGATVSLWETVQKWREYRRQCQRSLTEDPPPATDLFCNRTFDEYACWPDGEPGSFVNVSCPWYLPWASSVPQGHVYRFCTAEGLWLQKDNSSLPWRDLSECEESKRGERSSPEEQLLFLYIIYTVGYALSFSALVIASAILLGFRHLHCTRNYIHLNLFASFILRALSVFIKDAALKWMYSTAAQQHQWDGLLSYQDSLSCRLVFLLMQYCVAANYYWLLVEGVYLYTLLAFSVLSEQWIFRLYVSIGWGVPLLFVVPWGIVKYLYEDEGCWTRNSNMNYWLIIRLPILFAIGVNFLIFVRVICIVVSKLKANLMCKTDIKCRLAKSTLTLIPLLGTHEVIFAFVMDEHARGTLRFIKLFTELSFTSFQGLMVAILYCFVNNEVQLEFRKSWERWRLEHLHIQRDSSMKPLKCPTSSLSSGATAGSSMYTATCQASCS

Turning to `CC(C)C[C@H](NC(=O)CNC(=O)[C@H](CO)NC(=O)[C@@H](NC(=O)[C@H](CC(=O)O)NC(=O)[C@H](CO)NC(=O)[C@@H](NC(=O)[C@H](Cc1ccccc1)NC(=O)[C@@H](NC(=O)CNC(=O)[C@H](CCC(=O)O)NC(=O)C(C)(C)NC(=O)[C@@H](N)Cc1c[nH]cn1)[C@@H](C)O)[C@@H](C)O)C(C)C)C(=O)N[C@@H](CCCCNC(=O)COCCOCCNC(=O)COCCOCCNC(=O)CC[C@H](NC(=O)CCCCCCCCCCCCCCCCCCC(=O)O)C(=O)O)C(=O)N[C@@H](CCC(=O)O)C(=O)N[C@@H](CCC(=O)O)C(=O)N[C@@H](C)C(=O)NC(C)(C)C(=O)N[C@@H](CC(C)C)C(=O)N[C@@H](CCC(N)=O)C(=O)N[C@@H](CCCNC(=N)N)C(=O)N[C@@H](Cc1ccccc1)C(=O)N[C@@H](CC(C)C)C(=O)N[C@@H](CCC(=O)O)C(=O)N[C@@H](Cc1c[nH]cn1)C(=O)N[C@@H](CC(C)C)C(=O)N[C@H](C(N)=O)C(C)C` [compound 167] (H-H[Aib]EGTFTSDVSGLK([AEEA-AEEA-γGlu-C20 diacid])EEA[Aib]LQRFLEHLV-NH2), the EC50 in data set [1] is 0.00631 nM; in data set [4] it was 100 nM. Moreover, the “SCTR EC50/GLP1R EC50 ratio” value in data set [1] is given as 16446. For the same compound, the “Turbidity (pH 7)” value in data set [2] was 0.08. Besides, the Fibril formation in data set [3] came to 4018.
On to `CC(C)C[C@H](NC(=O)[C@H](Cc1ccccc1)NC(=O)[C@H](CCCNC(=N)N)NC(=O)[C@H](CCC(N)=O)NC(=O)[C@H](CC(C)C)NC(=O)C(C)(C)NC(=O)[C@H](C)NC(=O)[C@H](CCC(=O)O)NC(=O)[C@H](CCC(=O)O)NC(=O)[C@H](CCCCNC(=O)COCCOCCNC(=O)COCCOCCNC(=O)CC[C@H](NC(=O)CCCCCCCCCCCCCCCCCCC(=O)O)C(=O)O)NC(=O)[C@H](CC(C)C)NC(=O)[C@H](Cc1ccc(O)cc1)NC(=O)[C@H](CO)NC(=O)[C@@H](NC(=O)[C@H](CC(=O)O)NC(=O)[C@H](CO)NC(=O)[C@@H](NC(=O)[C@H](Cc1ccccc1)NC(=O)[C@@H](NC(=O)CNC(=O)[C@H](CCC(=O)O)NC(=O)C(C)(C)NC(=O)[C@@H](N)Cc1c[nH]cn1)[C@@H](C)O)[C@@H](C)O)C(C)C)C(=O)N[C@@H](CCC(=O)O)C(=O)N[C@@H](Cc1c[nH]c2ccccc12)C(=O)N[C@@H](CC(C)C)C(=O)N[C@H](C(N)=O)C(C)C` [compound 169] (H-H[Aib]EGTFTSDVSYLK([AEEA-AEEA-γGlu-C20 diacid])EEA[Aib]LQRFLEWLV-NH2), for which, in data set [1], the EC50 is 0.0398 nM and the “SCTR EC50/GLP1R EC50 ratio” value was 14974. In addition, in data set [2], the “Turbidity (pH 7)” value stood at 0.08. The same compound yielded a Fibril formation in data set [3] of 3552. The EC50 in data set [4] was 501 nM.
On to `CC(C)C[C@H](NC(=O)[C@H](Cc1ccccc1)NC(=O)[C@H](CCCNC(=N)N)NC(=O)[C@H](CCC(N)=O)NC(=O)[C@H](CC(C)C)NC(=O)C(C)(C)NC(=O)[C@H](C)NC(=O)[C@H](CCC(=O)O)NC(=O)[C@H](CCC(=O)O)NC(=O)[C@H](CCCCNC(=O)COCCOCCNC(=O)COCCOCCNC(=O)CC[C@H](NC(=O)CCCCCCCCCCCCCCCCCCC(=O)O)C(=O)O)NC(=O)[C@H](CC(C)C)NC(=O)[C@H](Cc1ccc(O)cc1)NC(=O)[C@H](CO)NC(=O)[C@@H](NC(=O)[C@H](CC(=O)O)NC(=O)[C@H](CO)NC(=O)[C@@H](NC(=O)[C@H](Cc1ccccc1)NC(=O)[C@@H](NC(=O)CNC(=O)[C@H](CC(C)C)NC(=O)C(C)(C)NC(=O)[C@@H](N)Cc1c[nH]cn1)[C@@H](C)O)[C@@H](C)O)C(C)C)C(=O)N[C@@H](CCC(=O)O)C(=O)N[C@@H](Cc1c[nH]cn1)C(=O)N[C@@H](CC(C)C)C(=O)N[C@H](C(N)=O)C(C)C` [compound 170] (H-H[Aib]LGTFTSDVSYLK([AEEA-AEEA-γGlu-C20 diacid])EEA[Aib]LQRFLEHLV-NH2), for which the EC50 in data set [1] is 0.0251 nM; in data set [4], 25100 nM. For the same compound, the “SCTR EC50/GLP1R EC50 ratio” value in data set [1] was determined as 873474. Moreover, in data set [2], the “Turbidity (pH 7)” value is reported as 0.08. The same compound registered a Fibril formation in data set [3] of 3337.
The corresponding values for `CC(C)C[C@H](NC(=O)[C@H](Cc1ccccc1)NC(=O)[C@H](CCCNC(=N)N)NC(=O)[C@H](CCC(N)=O)NC(=O)[C@H](CC(C)C)NC(=O)C(C)(C)NC(=O)[C@H](C)NC(=O)[C@H](CCC(=O)O)NC(=O)[C@H](CCC(=O)O)NC(=O)[C@H](CCCCNC(=O)COCCOCCNC(=O)COCCOCCNC(=O)CC[C@H](NC(=O)CCCCCCCCCCCCCCCCCCC(=O)O)C(=O)O)NC(=O)[C@H](CC(C)C)NC(=O)[C@H](Cc1ccc(O)cc1)NC(=O)[C@H](CO)NC(=O)[C@@H](NC(=O)[C@H](CC(=O)O)NC(=O)[C@H](CO)NC(=O)[C@@H](NC(=O)[C@H](Cc1ccccc1)NC(=O)[C@@H](NC(=O)CNC(=O)[C@H](Cc1c[nH]cn1)NC(=O)C(C)(C)NC(=O)[C@@H](N)Cc1c[nH]cn1)[C@@H](C)O)[C@@H](C)O)C(C)C)C(=O)N[C@@H](CCC(=O)O)C(=O)N[C@@H](Cc1c[nH]cn1)C(=O)N[C@@H](CC(C)C)C(=O)N[C@H](C(N)=O)C(C)C` [compound 171] (H-H[Aib]HGTFTSDVSYLK([AEEA-AEEA-γGlu-C20 diacid])EEA[Aib]LQRFLEHLV-NH2) are 0.158 nM, 31600 nM, 209459, 0.08 and 3473.
For `CC[C@H](C)[C@H](NC(=O)[C@H](CO)NC(=O)[C@@H](NC(=O)[C@H](CC(=O)O)NC(=O)[C@H](CO)NC(=O)[C@@H](NC(=O)[C@H](Cc1ccccc1)NC(=O)[C@@H](NC(=O)CNC(=O)[C@H](CCC(=O)O)NC(=O)C(C)(C)NC(=O)[C@@H](N)Cc1c[nH]cn1)[C@@H](C)O)[C@@H](C)O)C(C)C)C(=O)N[C@@H](CC(C)C)C(=O)N[C@@H](CCCCNC(=O)COCCOCCNC(=O)COCCOCCNC(=O)CC[C@H](NC(=O)CCCCCCCCCCCCCCCCCCC(=O)O)C(=O)O)C(=O)N[C@@H](CCC(=O)O)C(=O)N[C@@H](CCC(=O)O)C(=O)N[C@@H](C)C(=O)NC(C)(C)C(=O)N[C@@H](CC(C)C)C(=O)N[C@@H](CCC(N)=O)C(=O)N[C@@H](CCCNC(=N)N)C(=O)N[C@@H](Cc1ccccc1)C(=O)N[C@@H](CC(C)C)C(=O)N[C@@H](CCC(=O)O)C(=O)N[C@@H](Cc1c[nH]cn1)C(=O)N[C@@H](CC(C)C)C(=O)N[C@H](C(N)=O)C(C)C` [compound 172] (H-H[Aib]EGTFTSDVSILK([AEEA-AEEA-γGlu-C20 diacid])EEA[Aib]LQRFLEHLV-NH2), the EC50 in data set [1] is 0.0158 nM; in data set [4], 20 nM. Further, in data set [1], the “SCTR EC50/GLP1R EC50 ratio” value was 1279. For the same compound, in data set [2], the “Turbidity (pH 7)” value was determined as 0.08. This compound gave a Fibril formation in data set [3] of 2942.
